Peptide text beside a SMILES is read from it.
Experiments:
[1] = In vitro stability to proteolysis in human serum; format: in vitro ADME; settings: 24 h treatment, 37 °C, RP-HPLC 280 nm
[2] = Pharmacokinetic analysis after intravenous bolus in rats; format: in vivo, Sprague-Dawley rats
[3] = rat, in vivo; cited from earlier work
[4] = tested on: viruses pseudotyped with vesicular stomatitis virus glycoprotein, VSV-G; format: cell-based
HOS.CD4.CCR5 cells = assay: MTT; format: cell-based; settings: concentrations 50 fold higher than IC50 values, 24 hours continuous cellular exposure
trypsin = settings: cited from earlier work
chymotrypsin = settings: cited from earlier work

Compound: CC[C@H](C)[C@@H]1NC(=O)[C@H](CC(N)=O)NC(=O)[C@@H](NC(=S)Nc2ccc3c(c2)C(=O)OC32c3ccc(O)cc3Oc3cc(O)ccc32)CC(=O)NCCCC[C@@H](C(N)=O)NC(=O)[C@H](Cc2c[nH]c3ccccc23)NC(=O)[C@@H]2C[C@H](n3cc(C4=CC=C[CH]4[Fe][CH]4C=CC=C4)nn3)CN2C1=O (stereo partly shown) [FITC-AAR029b] (HELM PEPTIDE1{[O=C1OC2(c3ccc(O)cc3Oc3cc(O)ccc32)c2ccc(NC(=S)[*:2])cc21].D.N.I.[O=C([C@@H]1C[C@H](n2cc(C3=CC=C[CH]3[Fe][CH]3C=CC=C3)nn2)CN1[*:1])[*:2]].W.K.[am]}$PEPTIDE1,PEPTIDE1,2:R3-7:R3$$$V2.0; C-terminus assumed)
- Stability to human serum protease mixture [1]: intact
- Time over which plasma level was detectable ([2]; after tail vein administration to rats, fluorescence): ≤ 7 h
- AUC(0-inf) ([2]; rat, in vivo, iv, 0.01 mg/kg): 40 ± 40 ng·h/mL
- Vd ([2]; rat, in vivo, iv, 0.01 mg/kg): 0.542 ± 0.119 L
- clearance ([2]; rat, in vivo, iv, 0.01 mg/kg, CL (ml/h), clearance, intravenous bolus 0.01 mg/kg FITC (equiv), Sprague-Dawley rats): 2.27 mL/min
- half-life ([2]; rat, in vivo, iv, 0.01 mg/kg, t1/2α (h), distribution half life, intravenous bolus 0.01 mg/kg FITC (equiv), Sprague-Dawley rats): 0.029 ± 0.01 h
- half-life ([2]; rat, in vivo, iv, 0.01 mg/kg, t1/2β (h), elimination half life, intravenous bolus 0.01 mg/kg FITC (equiv), Sprague-Dawley rats): ~3 h

Compound: COc1ccnc2[nH]cc(C(=O)C(=O)N3CCN(C(=O)c4ccccc4)C[C@H]3C)c12 [BMS-378806]
- Clearance rate [3]: ~ 1800 mL/h

Compound: CC[C@H](C)[C@@H]1NC(=O)[C@H](CC(N)=O)NC(=O)[C@@H](N)CC(=O)NCCCC[C@@H](C(N)=O)NC(=O)[C@H](Cc2c[nH]c3ccccc23)NC(=O)[C@@H]2C[C@H](n3cc(C4=CC=C[CH]4[Fe][CH]4C=CC=C4)nn3)CN2C1=O (stereo partly shown) [AAR029b] (HELM PEPTIDE1{D.N.I.[O=C([C@@H]1C[C@H](n2cc(C3=CC=C[CH]3[Fe][CH]3C=CC=C3)nn2)CN1[*:1])[*:2]].W.K.[am]}$PEPTIDE1,PEPTIDE1,1:R3-6:R3$$$V2.0; N-terminus and C-terminus assumed)
- Inhibition of VSV-G pseudotyped virus [4]: did not inhibit
- Toxicity in target HOS.CD4.CCR5 cells (HOS.CD4.CCR5 cells): No toxicity
- Stability to human serum protease mixture [1]: intact
- Resistance to proteolysis by trypsin (trypsin): resistant to proteolysis
- Resistance to proteolysis by chymotrypsin (chymotrypsin): resistant to proteolysis
